The target in assay [1] is T1, STP10 (Arabidopsis thaliana, UniProt Q9LT15).
T1 construct: full length 514 residues; S. cerevisiae expression, C-terminal thrombin site and His10 tag, tag cut with thrombin for structure (model residues 21-507, monomer); STP10 gene subcloned for Xenopus oocyte and yeast EBY-WV4000 uptake
T1 sequence (Q9LT15 1-514): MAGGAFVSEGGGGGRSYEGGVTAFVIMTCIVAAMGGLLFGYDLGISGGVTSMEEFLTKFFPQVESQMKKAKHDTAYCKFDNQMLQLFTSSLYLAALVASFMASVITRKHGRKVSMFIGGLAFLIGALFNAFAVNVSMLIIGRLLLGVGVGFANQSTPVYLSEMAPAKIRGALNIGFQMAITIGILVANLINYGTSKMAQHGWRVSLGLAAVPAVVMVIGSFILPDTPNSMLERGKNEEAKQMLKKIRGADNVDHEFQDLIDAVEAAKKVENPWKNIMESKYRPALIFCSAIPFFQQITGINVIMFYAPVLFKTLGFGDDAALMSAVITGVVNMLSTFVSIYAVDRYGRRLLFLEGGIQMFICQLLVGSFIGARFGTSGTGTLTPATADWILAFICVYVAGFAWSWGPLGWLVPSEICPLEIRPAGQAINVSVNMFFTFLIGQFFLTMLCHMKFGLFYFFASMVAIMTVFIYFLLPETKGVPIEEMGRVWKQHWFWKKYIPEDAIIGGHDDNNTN
The assay is described as follows: [3H]-2-deoxy-D-glucose uptake in yeast EBY-WV4000. It counts as cell-based. The note with it: pH 5.0; 30 °C; labelled compound.

Assay [2] addresses T1, STP10. The assay is described as follows: competition with [3H]-D-glucose uptake in yeast EBY-WV4000. Type of assay: cell-based. The note with it: pH 5.0; 30 °C; 250 µM competitor against 10 µM D-glucose.
The target in assay [3] is T1, STP10. Briefly: isothermal titration calorimetry, purified protein, one-site model. The note with it: pH 5.5; 20 °C; 0.03% DDM; read-out: apparent Kd. Background: ITC needs no label: the signal is the heat of the interaction.
Assay [4] deals with T1, STP10. Briefly: X-ray crystal structure, […] Å. As to conditions: central binding site; outward occluded state; lipidic cubic phase, pH 4.5.

The record followed here is PMC6345825, “Crystal structure of the plant symporter STP10 illuminates sugar uptake mechanism in monosaccharide transporter superfamily” (Nature Communications, 2019).

Take `OC[C@H]1OC(O)C[C@@H](O)[C@@H]1O` (some centres unmarked) [2-deoxyglucose]: the “[3H]-2-deoxy-D-glucose uptake in yeast EBY-WV4000” value at STP10 [1] is on record as “The protein can transport the non-metabolized glucose analog 2-deoxyglucose”. For `OC[C@H]1OC(O)[C@H](O)[C@@H](O)[C@H]1O` (some centres unmarked) [galactose], the competition entry at STP10 [2] is “Competition assays using radioactively labeled glucose confirm galactose and mannose as potential substrates”. Take `OC[C@H]1OC(O)[C@H](O)[C@@H](O)[C@@H]1O` (some centres unmarked) [glucose]: the Kd on STP10 [3] came out at 3.2 µM. Further, at STP10 [4], the “X-ray crystal structure, 2.4 Å” value was “contains unambiguous density for glucose”. As to `OC[C@H]1OC(O)[C@@H](O)[C@@H](O)[C@@H]1O` (some centres unmarked) [mannose], the competition entry on STP10 [2] is “Competition assays using radioactively labeled glucose confirm galactose and mannose as potential substrates”.
